Assay results published in article PMC4459817, “Vasculotide reduces endothelial permeability and tumor cell extravasation in the absence of binding to or agonistic activation of Tie2” (EMBO Molecular Medicine, 2015).

Test system: CMPTX-labeled tumor cells across HMVEC-DBl
Assay: modified Boyden chamber, trans-endothelial tumor cell migration, HMVEC-DBl
Format: cell-based, human
Settings: Fig1E
Procedure: ECs were first treated with Vasculotide (VT), PBS (vehicle/negative control), Ang1 (positive control), PEG-Cys (polyethylene glycol backbone), T7c (non-PEGylated CHHHRHSF peptides), or VT in the presence of 100-fold molar excess of T7c. The concentrations used, 10–20 ng/mL VT and 200–400 ng/mL Ang1, are estimated molar equivalents (0.71–1.43 nM). Thirty minutes later, ECs were stimulated with thrombin, 0.1% BSA (vehicle/negative control), or EDTA (positive control). Another 30mins later, the amount of FITC-dextran diffusion into the lower chambers (A, D) provides a measure of endothelial permeability. CMTPX-labeled tumor cells (TCs) were then dispensed into inserts, and the amount of TC fluorescence emitting from the underside of insert membranes after 20 h (B–C) or 28 h (E) reflects the efficiency of trans-endothelial TC migration. […] Three experiments (twice with HMVEC-LBl and once with HMVEC-DBl) were run with n = 3–5 inserts (independent biological replicates) per group and analyzed by two-sampled unpaired t-tests. […]
Endothelial cells (ECs) were grown on cell culture inserts with uncoated 8-μm-pore PET filter membranes to 100% confluency. […] After 30 min of thrombin stimulation or 4–6 h of TC-CM stimulation, FITC fluorescence (ex/em = 490/520 nm) was measured from a 50 μl sample of the lower chamber media. […]

Q: “CHHHRHSF [Vasculotide, 4-armed maleimide-functionalized polyethylene glycol (PEG) backbone to link together four cysteine-capped T7 peptides, that is, CHHHRHSF]” was tested. Which “thrombin-stimulated migration of CMTPX-labeled TCs” value (28 h) did it give?
A: Its value is “trends of reducing thrombin-stimulated migration”.

Q: What about the “TC migration effect of VT in presence of 100-fold molar excess of T7c” value of the same sequence?
A: Its value is “dampened the effects of VT”.
